Data on 40 substances can be found in US10487116B2, “Immunotherapy against several tumors, such as lung cancer, including NSCLC” (IMMATICS BIOTECHNOLOGIES GMBH, priority 2013, dated 2019).

For one test, the target named is HLA-A*0201 (Homo sapiens, UniProt P04439, D140Y/D185E/D98H/E176V/E277Q/G131W/G231S/I119V/I121R/I166T/I218V/L300P/L318F/N151K/N90K/P208A/P217A/Q86G/Q94H/R138H/R169H/T345S). Nature of the test: UV-ligand exchange with ELISA of stabilized MHC complexes. Format: binding. The following applies: class symbol. From the text: Candidate peptides for the vaccines according to the present invention were further tested for immunogenicity by in vitro priming assays. The individual peptide-MHC complexes required for these assays were produced by UV-ligand exchange, where a UV-sensitive peptide is cleaved upon UV-irradiation, and exchanged with the peptide of interest as analyzed. Only peptide candidates that can effectively bind and stabilize the peptide-receptive MHC molecules prevent dissociation of the MHC complexes. To determine the yield of the exchange reaction, an ELISA was performed based on the detection of the light chain (β2m) of stabilized MHC complexes. The assay was performed as generally described in Rodenko et al. (Rodenko B, Toebes M, Hadrup S R, van Esch W J, Molenaar A M, Schumacher T N, Ovaa H. Generation of peptide-MHC class I complexes through UV-mediated ligand exchange. Nat Protoc. 2006; 1(3):1120-32.).
96 well MAXISorp plates (NUNC) were coated over night with 2 ug/ml streptavidin in PBS at room temperature, washed 4× and blocked for 30 min at 37° C. in 2% BSA containing blocking buffer. Refolded HLA-A*0201/MLA-001 monomers served as standards, covering the range of 8-500 ng/ml. Peptide-MHC monomers of the UV-exchange reaction were diluted 100 fold in blocking buffer. Samples were incubated for 1 h at 37° C., washed four times, incubated with 2 ug/ml HRP conjugated anti-β2m for 1 h at 37° C., washed again and detected with TMB solution that is stopped with […]. Absorption was measured at 450 nm.
In general terms: ELISA stands for enzyme-linked immunosorbent assay.

The subject of the next test is CD8+ T cells. Briefly: In vitro T-cell priming assay (aAPCs loaded with peptide/MHC and anti-CD28, pMHC multimer readout). It counts as cell-based, human. The following applies: for Wells: positive wells. From the text:
In order to obtain information regarding the immunogenicity of the TUMAPs of the present invention, we performed investigations using an in vitro T-cell priming assay based on repeated stimulations of CD8+ T cells with artificial antigen presenting cells (aAPCs) loaded with peptide/MHC complexes and anti-CD28 antibody.
In order to perform in vitro stimulations by artificial antigen presenting cells loaded with peptide-MHC complex (pMHC) and anti-CD28 antibody, we first isolated CD8+ T cells from fresh HLA-A*02 leukapheresis products via positive selection using CD8 microbeads (Miltenyi Biotec, Bergisch-Gladbach, Germany) of healthy donors obtained from the Transfusion Medicine Tuebingen, Germany, after informed consent.
Isolated CD8+ lymphocytes or PBMCs were incubated until use in T-cell medium (TCM) consisting of RPMI-Glutamax (Invitrogen, Karlsruhe, Germany) supplemented with 10% heat inactivated human AB serum (PAN-Biotech, Aidenbach, Germany), 100 U/ml Penicillin/100 μg/ml Streptomycin (Cambrex, Cologne, Germany), 1 mM sodium pyruvate (CC Pro, Oberdorla, Germany), 20 μg/ml Gentamycin (Cambrex). 2.5 ng/ml IL-7 (PromoCell, Heidelberg, Germany) and 10 U/ml IL-2 (Novartis Pharma, Nurnberg, Germany) were also added to the TCM at this step.
Generation of pMHC/anti-CD28 coated beads, T-cell stimulations and readout was performed in a highly defined in vitro system using four different pMHC molecules per stimulation condition and 8 different pMHC molecules per readout condition.
All pMHC complexes used for aAPC loading and cytometric readout were derived from UV-induced MHC ligand exchange (Rodenko et al., 2006) with minor modifications. In order to determine the amount of pMHC monomer obtained by exchange we performed streptavidin-based sandwich ELISAs according to (Rodenko et al., 2006).
The purified co-stimulatory mouse IgG2a anti human CD28 Ab 9.3 (Jung et al., 1987) was chemically biotinylated using Sulfo-N-hydroxysuccinimidobiotin as recommended by the manufacturer (Perbio, Bonn, Germany). Beads used were 5.6 μm diameter streptavidin coated polystyrene particles (Bangs Laboratories, Ill., USA).
pMHC used for positive and negative control stimulations were A*0201/MLA-001 (peptide […] from modified Melan-A/MART-1) and A*0201/DDX5-001 ([…] from DDX5), respectively.
800.000 beads/200 μl were coated in 96-well plates in the presence of 4×12.5 ng different biotin-pMHC, washed and 600 ng biotin anti-CD28 were added subsequently in a volume of 200 μl. Stimulations were initiated in 96-well plates by co-incubating 1×10^6 CD8+ T cells with 2×10^5 washed coated beads in 200 μl TCM supplemented with 5 ng/ml IL-12 (PromoCell) for 3-4 days at 37° C. Half of the medium was then exchanged by fresh TCM supplemented with 80 U/ml IL-2 and incubating was continued for 3-4 days at 37° C. This stimulation cycle was performed for a total of three times. For the pMHC multimer readout using 8 different pMHC molecules per condition, a two-dimensional combinatorial coding approach was used as previously described (Andersen et al., 2012) with minor modifications encompassing coupling to 5 different fluorochromes. Finally, multimeric analyses were performed by staining the cells with Live/dead near IR dye (Invitrogen, Karlsruhe, Germany), CD8-FITC antibody clone SK1 (BD, Heidelberg, Germany) and fluorescent pMHC multimers. For analysis, a BD LSRII SORP cytometer equipped with appropriate lasers and filters was used. Peptide specific cells were calculated as percentage of total CD8+ cells. Evaluation of multimeric analysis was done using the FlowJo software (Tree Star, Oreg., USA). In vitro priming of specific multimer+CD8+ lymphocytes was detected by comparing to negative control stimulations.

Setting [1] is: in vitro immunogenicity, trifluoro-acetate salts of the peptides.
Where [2] appears, read: in vitro immunogenicity, responding healthy donors, trifluoro-acetate salts of the peptides.

Where two headings read alike, the source gives them in different places.

With “VLLPVEVATHYL (listed as Homo sapiens) [SEQ ID NO 11]”, in the test with HLA-A*0201, the Exchange yield result was “+++ (50%-70%, +++)”.
As to “RLLDSVSRL (listed as Homo sapiens) [SEQ ID NO 39]”, in the test with HLA-A*0201, the Exchange yield result is “+++ (50%-70%, +++)”.
The same measure, in the same setting: in the case of “SLAPAGVIRV (listed as Homo sapiens) [SEQ ID NO 79]” it was “+++ (50%-70%, +++)”; in that of “SMSGYDQVL (listed as Homo sapiens) [SEQ ID NO 8]”, “++ (20%-49% = ++)”; in that of “SISDVIAQV (listed as Homo sapiens) [SEQ ID NO 28]”, “+++ (50%-70%, +++)”.
Same read-out and setting: in the case of “YLAPFLRNV (listed as Homo sapiens) [SEQ ID NO 51]” it was “+++ (50%-70%, +++)”.
On the same count and under the same terms, as for “ALDENLHQL (listed as Homo sapiens) [SEQ ID NO 3]”, the entry is “++ (20%-49% = ++)”; as for “SLAGDVALQQL (listed as Homo sapiens) [SEQ ID NO 63]”, “++++ (>70 = ++++)”; as for “FLLDGSANV (listed as Homo sapiens) [SEQ ID NO 73]”, “++++ (>70 = ++++)”.
As to “AIDGNNHEV (listed as Homo sapiens) [SEQ ID NO 31]”, the Exchange yield result in the test with HLA-A*0201 is “++ (20%-49% = ++)”.
On the same count and under the same terms, in the case of “GLTDNIHLV (listed as Homo sapiens) [SEQ ID NO 40]” it was “+++ (50%-70%, +++)”; in that of “SLLESNKDLLL (listed as Homo sapiens) [SEQ ID NO 88]”, “+++ (50%-70%, +++)”; in that of “TLWYRAPEV (listed as Homo sapiens) [SEQ ID NO 7]”, “++ (20%-49% = ++)”.
Still for that read-out and setting: in the case of “ALANQKLYSV (listed as Homo sapiens) [SEQ ID NO 83]” it was “+++ (50%-70%, +++)”; in that of “SLFGNSGILENV (listed as Homo sapiens) [SEQ ID NO 80]”, “+++ (50%-70%, +++)”; in that of “SLHFLILYV (listed as Homo sapiens) [SEQ ID NO 38]”, “+ (<20% = +)”.
On the same count and under the same terms, as for “FQYDHEAFL (listed as Homo sapiens) [SEQ ID NO 14]”, the entry is “++++ (>70 = ++++)”; as for “AILDTLYEV (listed as Homo sapiens) [SEQ ID NO 21]”, “++ (20%-49% = ++)”.
Regarding “75 (ALYDSVILL; listed as Homo sapiens) [compound 75]”, in the test with CD8+ T cells (setting [1]), the Wells entry was “+ (<20% = +)”. Moreover, the Donors entry in the test on CD8+ T cells (setting [2]) was “++ (20%-49% = ++)”.
Regarding “37 (VLAPLFVYL; listed as Homo sapiens) [compound 37]”, the Donors in the test on CD8+ T cells is 100%; in the test with CD8+ T cells (setting [2]), “++++ (>70 = ++++)”. For the same substance, the Wells result in the test with CD8+ T cells (setting [1]) is “+ (<20% = +)”.
On to “44 (NLLAEIHGV; listed as Homo sapiens) [compound 44]”, for which the Wells entry with CD8+ T cells (setting [1]) is “+ (<20% = +)”. In the test on CD8+ T cells (setting [2]), the Donors entry is “++ (20%-49% = ++)”.
As for “56 (SLYKGLLSV; listed as Homo sapiens) [compound 56]”, the Donors in the test on CD8+ T cells is reported as 100%; in the test on CD8+ T cells (setting [2]) it was “++++ (>70 = ++++)”. In the test with CD8+ T cells (setting [1]), the Wells entry is “++ (20%-49% = ++)”.
Regarding “35 (VLFPNLKTV; listed as Homo sapiens) [compound 35]”, the Wells entry in the test with CD8+ T cells (setting [1]) is “+ (<20% = +)”. For the same substance, in the test with CD8+ T cells (setting [2]), the Donors entry was “++ (20%-49% = ++)”.
For the substance “68 (YVYQNNIYL; listed as Homo sapiens) [compound 68]”, in the test with CD8+ T cells (setting [1]), the Wells entry is reported as “+ (<20% = +)”. Further, the Donors result in the test with CD8+ T cells (setting [2]) was “+ (<20% = +)”.
For “78 (SLYDNQITTV; listed as Homo sapiens) [compound 78]”, the Wells entry in the test with CD8+ T cells (setting [1]) is “++ (20%-49% = ++)”. The Donors entry with CD8+ T cells (setting [2]) is “++ (20%-49% = ++)”.
Turning to “8 (SMSGYDQVL; listed as Homo sapiens) [compound 8]”, the Wells entry in the test with CD8+ T cells (setting [1]) is “+ (<20% = +)”. The Donors entry in the test with CD8+ T cells (setting [2]) is recorded as “++ (20%-49% = ++)”.
Take “61 (TLISRLPAV; listed as Homo sapiens) [compound 61]”: the Wells entry in the test with CD8+ T cells (setting [1]) is on record as “+ (<20% = +)”. Moreover, the Donors result with CD8+ T cells (setting [2]) is “+++ (50%-70%, +++)”.
Consider “48 (GLIEIISNA; listed as Homo sapiens) [compound 48]”, for which the Wells result in the test with CD8+ T cells (setting [1]) is on record as “+ (<20% = +)”. The Donors entry in the test with CD8+ T cells (setting [2]) is “+ (<20% = +)”.
With “80 (SLFGNSGILENV; listed as Homo sapiens) [compound 80]”, the Wells result with CD8+ T cells (setting [1]) is reported as “+ (<20% = +)”. Further, the Donors result in the test with CD8+ T cells (setting [2]) is listed as “++ (20%-49% = ++)”.
Take “38 (SLHFLILYV; listed as Homo sapiens) [compound 38]”: the Wells result in the test on CD8+ T cells (setting [1]) is “+ (<20% = +)”. In the test with CD8+ T cells (setting [2]), the Donors entry was “++ (20%-49% = ++)”.
As for “59 (ILVSWLPRL; listed as Homo sapiens) [compound 59]”, the Wells entry in the test on CD8+ T cells (setting [1]) is recorded as “+ (<20% = +)”. For the same substance, the Donors entry in the test with CD8+ T cells (setting [2]) is listed as “+++ (50%-70%, +++)”.
“74 (SLLAQNTSWLL; listed as Homo sapiens) [compound 74]”: the Wells entry in the test on CD8+ T cells (setting [1]) is recorded as “+ (<20% = +)”. For the same substance, the Donors result in the test with CD8+ T cells (setting [2]) is reported as “+++ (50%-70%, +++)”.
For the substance “32 (KLSWDLIYL; listed as Homo sapiens) [compound 32]”, the Wells result with CD8+ T cells (setting [1]) is “+ (<20% = +)”. The Donors entry with CD8+ T cells (setting [2]) is “+++ (50%-70%, +++)”.
The like results for “86 (AMATESILHFA; listed as Homo sapiens) [compound 86]” were, in that order, “+ (<20% = +)” and “++ (20%-49% = ++)”.
For the substance “71 (KLLEYIEEI; listed as Homo sapiens) [compound 71]”, the Wells entry in the test on CD8+ T cells (setting [1]) is recorded as “+ (<20% = +)”. Besides, in the test with CD8+ T cells (setting [2]), the Donors result is “+++ (50%-70%, +++)”.
For “52 (ALLERGYSL; listed as Homo sapiens) [compound 52]”, the Wells entry in the test with CD8+ T cells (setting [1]) was “+ (<20% = +)”. For the same substance, the Donors result in the test with CD8+ T cells (setting [2]) was “+ (<20% = +)”.
Consider “88 (SLLESNKDLLL; listed as Homo sapiens) [compound 88]”, for which the Wells entry in the test with CD8+ T cells (setting [1]) was “+ (<20% = +)”. Besides, in the test with CD8+ T cells (setting [2]), the Donors entry is recorded as “++ (20%-49% = ++)”.
Regarding “39 (RLLDSVSRL; listed as Homo sapiens) [compound 39]”, the Wells result in the test on CD8+ T cells (setting [1]) is given as “+ (<20% = +)”. The Donors result with CD8+ T cells (setting [2]) is listed as “++ (20%-49% = ++)”.
“40 (GLTDNIHLV; listed as Homo sapiens) [compound 40]”: the Wells result in the test with CD8+ T cells (setting [1]) is recorded as “+ (<20% = +)”. In addition, in the test on CD8+ T cells (setting [2]), the Donors result is reported as “++ (20%-49% = ++)”.
The matching figures for “92 (HLLEDIAHV; listed as Homo sapiens) [compound 92]”: “+ (<20% = +)” and “++ (20%-49% = ++)”.
